Laboratory results published in article PMC6362833 (ACS chemical neuroscience, 2017).
Several values for one entry are separate records, joined by “and”; a condition that tells them apart may be missing. Equal values may be shown once.

Columns and labels:
CaM/AC8-Nt interaction = CaM/AC8-Nt interaction (Homo sapiens, UniProt P0DP23); test: Fluorescence polarization; format: binding; settings: for IC50: FP; for slope of concentration-response curve: FP concentration response
CaM/AC8-C2b interaction = CaM/AC8-C2b interaction (Homo sapiens, UniProt P0DP23); test: Fluorescence polarization; format: binding; settings: for IC50: FP; for inhibition of CaM/AC8-C2b relative to EGTA control: maximal inhibition, no detergent
AC1 [1] = test: CaM-stimulated AC1 activity in membrane preparations; format: biochemical; settings: membranes of HEK293 cells stably expressing AC1, CaM-stimulated
[2] = target: (Homo sapiens, UniProt P0DP23); test: as above; format: biochemical; settings: read-out: AC1 % inhibition
HEK-293T cells = test: CytoTox-Fluor acute cytotoxicity assay; format: cell-based; settings: 30 min; for effect on cell viability: up to 31.6 μM
AC8 = AC8 (Homo sapiens, UniProt P40145); test: CaM-stimulated AC8 activity in membrane preparations; format: biochemical; settings: for inhibition at 100 µM: read-out: AC8 % inhibition; for potency against AC8 compared with AC1: membrane preparations
CaM/AC8 complex = CaM/AC8 complex (Homo sapiens, UniProt P0DP23); test: AC8/CaM NanoBiT complementation assay in HEK-293T cells; format: cell-based, rat AC8; settings: 30 min pretreatment
AC1 [3] = target: AC1 (Homo sapiens, UniProt Q08828); test: CaM-stimulated AC1 activity in membrane preparations; format: biochemical
[4] = CytoTox-Fluor acute cytotoxicity assay; format: cell-based; settings: human, HEK293T cells, pH 7.4
HERG potassium channel = settings: cited from earlier work
L-type Ca^2+ channels = settings: cited from earlier work
[5] = target: GST-tagged calmodulin (N-terminally 6X-His-GST-tagged human CaM, residues 1-149) (human) (UniProt P0DP23); test: fluorescence polarisation
[6] = AC8-Nt pIC50, 0% Triton, 316 nM GST-CaM, 100 nM Cy5-AC8-Nt, no Triton X-100
[7] = AC8-Nt pIC50, 0.01% Triton, 0.01% Triton X-100
[8] = AC8-C2b pIC50, 0% Triton, 316 nM GST-CaM, 100 nM Cy5-AC8-C2b, no Triton X-100
[9] = AC8-C2b pIC50, 0.01% Triton, 0.01% Triton X-100

Chain of AC8 (P40145 whole entry): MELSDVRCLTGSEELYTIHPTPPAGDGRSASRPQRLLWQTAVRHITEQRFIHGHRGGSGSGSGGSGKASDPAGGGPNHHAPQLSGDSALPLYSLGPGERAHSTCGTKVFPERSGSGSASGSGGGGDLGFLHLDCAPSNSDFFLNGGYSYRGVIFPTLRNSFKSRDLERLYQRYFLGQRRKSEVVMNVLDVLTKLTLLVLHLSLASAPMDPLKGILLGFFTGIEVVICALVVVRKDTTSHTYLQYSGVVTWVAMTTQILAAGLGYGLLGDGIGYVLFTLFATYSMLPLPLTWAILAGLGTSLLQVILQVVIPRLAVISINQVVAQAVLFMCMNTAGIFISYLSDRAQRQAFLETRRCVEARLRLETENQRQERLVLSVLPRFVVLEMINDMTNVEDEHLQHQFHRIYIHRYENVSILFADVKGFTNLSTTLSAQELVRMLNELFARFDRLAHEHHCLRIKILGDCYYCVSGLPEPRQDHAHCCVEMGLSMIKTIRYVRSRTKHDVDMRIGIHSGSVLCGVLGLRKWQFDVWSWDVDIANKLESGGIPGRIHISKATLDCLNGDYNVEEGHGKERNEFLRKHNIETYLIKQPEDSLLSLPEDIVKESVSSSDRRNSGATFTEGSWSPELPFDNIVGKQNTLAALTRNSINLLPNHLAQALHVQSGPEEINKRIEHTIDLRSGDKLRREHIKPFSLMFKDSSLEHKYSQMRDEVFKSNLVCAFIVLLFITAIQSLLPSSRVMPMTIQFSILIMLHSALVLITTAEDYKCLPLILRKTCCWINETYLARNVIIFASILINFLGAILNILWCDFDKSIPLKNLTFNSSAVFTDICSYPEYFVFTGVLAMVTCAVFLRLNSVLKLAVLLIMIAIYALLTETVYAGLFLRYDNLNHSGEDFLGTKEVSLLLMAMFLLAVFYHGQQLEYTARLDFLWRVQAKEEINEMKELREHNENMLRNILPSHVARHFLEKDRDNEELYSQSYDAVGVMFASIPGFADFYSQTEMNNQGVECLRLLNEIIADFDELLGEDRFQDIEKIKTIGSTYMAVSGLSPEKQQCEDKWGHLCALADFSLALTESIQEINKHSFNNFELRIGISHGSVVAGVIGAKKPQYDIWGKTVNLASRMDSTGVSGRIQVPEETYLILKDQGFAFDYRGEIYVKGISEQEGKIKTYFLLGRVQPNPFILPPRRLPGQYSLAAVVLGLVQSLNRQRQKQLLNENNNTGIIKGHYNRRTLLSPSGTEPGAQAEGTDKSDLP
Chain of AC1 (Q08828 whole entry): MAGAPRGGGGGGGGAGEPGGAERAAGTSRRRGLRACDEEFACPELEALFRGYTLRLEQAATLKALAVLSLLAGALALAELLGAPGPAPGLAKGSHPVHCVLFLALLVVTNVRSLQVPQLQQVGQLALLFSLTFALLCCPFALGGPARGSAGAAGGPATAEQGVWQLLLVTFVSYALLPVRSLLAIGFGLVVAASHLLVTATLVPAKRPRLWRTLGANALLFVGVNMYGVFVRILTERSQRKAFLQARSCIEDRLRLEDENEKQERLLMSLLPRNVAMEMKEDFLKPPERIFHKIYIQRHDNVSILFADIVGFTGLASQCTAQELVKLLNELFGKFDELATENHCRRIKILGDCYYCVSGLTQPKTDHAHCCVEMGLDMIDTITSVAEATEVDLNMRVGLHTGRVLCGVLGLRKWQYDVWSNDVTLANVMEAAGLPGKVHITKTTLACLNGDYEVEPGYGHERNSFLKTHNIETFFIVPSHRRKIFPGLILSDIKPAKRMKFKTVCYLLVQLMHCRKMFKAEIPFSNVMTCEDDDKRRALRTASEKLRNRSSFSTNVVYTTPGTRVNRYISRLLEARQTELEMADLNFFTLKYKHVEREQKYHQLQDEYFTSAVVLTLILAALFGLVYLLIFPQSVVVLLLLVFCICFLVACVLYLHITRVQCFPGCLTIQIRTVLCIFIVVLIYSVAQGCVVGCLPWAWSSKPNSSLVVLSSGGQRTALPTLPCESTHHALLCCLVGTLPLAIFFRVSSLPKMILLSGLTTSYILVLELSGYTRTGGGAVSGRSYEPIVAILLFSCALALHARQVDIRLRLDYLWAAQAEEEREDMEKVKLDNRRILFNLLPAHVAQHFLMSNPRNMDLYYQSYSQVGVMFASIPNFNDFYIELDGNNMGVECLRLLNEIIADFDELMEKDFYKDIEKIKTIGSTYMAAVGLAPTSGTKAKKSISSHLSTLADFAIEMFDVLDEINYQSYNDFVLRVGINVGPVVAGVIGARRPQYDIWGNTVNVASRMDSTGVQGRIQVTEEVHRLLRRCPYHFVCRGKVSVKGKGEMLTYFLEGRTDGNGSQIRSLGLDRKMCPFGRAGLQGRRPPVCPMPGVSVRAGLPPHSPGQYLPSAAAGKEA
Chain of AC1 (Homo sapiens, UniProt Q08828) (Q08828 whole entry): as above

| IC50 (CaM/AC8-Nt interaction; [6]) | IC50 (CaM/AC8-Nt interaction; [7]) | AC1 pIC50 (AC1 [1]) | inhibition at 100 µM [2] | IC50 (AC8) | inhibition at 100 µM (AC8) | Compound | effect on cell viability (HEK-293T cells) | also measured |
| --- | --- | --- | --- | --- | --- | --- | --- | --- |
| – | – | – | – | – | – | CN1CCN(CCCN2c3ccccc3Sc3ccc(C(F)(F)F)cc32)CC1 [TFP, trifluoperazine] | without negatively affecting cell viability | – |
| – | – | – | – | – | – | NCCCCCCNS(=O)(=O)c1cccc2c(Cl)cccc12 [W7, N-(6-aminohexyl)-5-chloro-1-naphthalenesulfonamide] | without negatively affecting cell viability | – |
| 2.14 µM | 1.41 µM | 5.24 ± 0.1 | 162 ± 10% | 4.9 µM | 106 ± 2% | CCCCC(CC)CNC(=N)NC(=N)NCCCCCCNC(=N)NC(=N)NCC(CC)CCCC (stereo not drawn) [alexidine] | – | slope of concentration-response curve (CaM/AC8-Nt interaction): −2.7 ± 0.2; IC50 (CaM/AC8-C2b interaction; [8]): 5.89 µM; IC50 (CaM/AC8-C2b interaction; [9]): 5.89 µM; concentration at which cell viability begins to be reduced (HEK-293T cells; HEK-293T): ≥ 10 µM |
| – | – | – | – | – | – | CC(C)(C)CC(C)(C)c1ccc(OCCOCC[N+](C)(C)Cc2ccccc2)cc1 [benzethonium, Benzethonium chloride] | no negative effect on cell viability | – |
| 14.5 µM | 15.5 µM | 4.55 ± 0.09 | 96 ± 4% | 17.4 µM | 104 ± 1% | CCCCCCCCCCCC[N+](C)(C)CCOc1ccccc1 [domiphen, Domiphen bromide] | – | IC50 at HERG potassium channel (HERG potassium channel): single-digit nanomolar; viability at 30 min, 31.6 µM [4]: 99% |
| 16.6 µM | 33.1 µM | 4.58 ± 0.03 | 103 ± 4% | 24 µM | 99 ± 1% | CCCCCCCCOc1ccccc1C(=O)Nc1ccc(C(=O)OCC[N+](C)(CC)CC)cc1 [otilonium, otilonium bromide] | – | slope of concentration-response curve (CaM/AC8-Nt interaction): −3.5 ± 0.2; viability at 30 min, 31.6 µM [4]: 77%; IC50 at L-type Ca2+ channels (L-type Ca^2+ channels): single-digit micromolar |
| 5.37 µM | 9.12 µM | 4.20 ± 0.06 | 77 ± 6% | 38.9 µM | 91 ± 1% | CCCCCCCCCCCCCCCC[N+](C)(C)CCN(Cc1ccc(OC)cc1)c1ncccn1 [thonzonium, Thonzonium bromide] | did not adversely affect cell viability | NanoBiT potency (CaM/AC8 complex): potencies similar to that observed for CDZ; effect of Triton X-100 on inhibition of CaM/AC8-C2b (CaM/AC8-C2b interaction; 0.01% Triton X-100): Increased inhibition; IC50 (CaM/AC8-C2b interaction; [8]): 10 µM; IC50 (CaM/AC8-C2b interaction; [9]): 12.6 µM; inhibition of CaM/AC8-C2b relative to EGTA control (CaM/AC8-C2b interaction): approximately 50%; potency against AC8 compared with AC1 (AC8): slightly more potent against AC8 than AC1 |
| – | – | – | – | – | – | unlabeled AC8-C2b peptide (from UniProt P40145 1191-1214) | – | pIC50 [5]: 4.95 |
| – | – | – | – | – | – | unlabeled AC8-Nt peptide (from UniProt P40145 30-54) | – | pIC50 [5]: 5.3 |

| Compound | IC50 (CaM/AC8-Nt interaction; [6]) | IC50 (CaM/AC8-Nt interaction; [7]) | AC1 pIC50 (AC1 [1]) | inhibition at 100 µM [2] | IC50 (AC8) | inhibition at 100 µM (AC8) | effect on cell viability (HEK-293T cells) | also measured |
| --- | --- | --- | --- | --- | --- | --- | --- | --- |
| Clc1ccc(C(c2ccc(Cl)cc2)n2cc[n+](CC(OCc3ccc(Cl)cc3Cl)c3ccc(Cl)cc3Cl)c2)cc1 (stereo not drawn) [CDZ, calmidazolium chloride] | 2.75 µM and 2.82 µM | 2.88 µM | 4.87 ± 0.06 | 97 ± 3% | 4.68 µM | 100% | appreciable cell toxicity at 31.6 μM | inhibition of CaM/AC8-Nt FP (CaM/AC8-Nt interaction; concentration response up to 100 μM, relative to EGTA control): complete inhibition; effect of Triton X-100 on inhibition of CaM/AC8-C2b (CaM/AC8-C2b interaction; 0.01% Triton X-100): Increased inhibition; IC50 (CaM/AC8-C2b interaction; [8]): 3.16 µM; IC50 (CaM/AC8-C2b interaction; [9]): 9.77 µM; inhibition of CaM/AC8-C2b relative to EGTA control (CaM/AC8-C2b interaction): approximately 50% |
| CCCCCCCCCCCCCCCC[N+](C)(C)C [cetrimonium, cetrimonium bromide] | 11.5 µM | 11.5 µM | – | – | 22.4 µM | 102 ± 2% | – | NanoBiT potency (CaM/AC8 complex): potencies similar to that observed for CDZ; IC50 (AC1 [3]): 39.8 µM; inhibition at 100 µM (AC1 [3]; read-out: AC1 % inhibition): 86 ± 7%; viability at 30 min, 31.6 µM [4]: 89%; potency against AC8 compared with AC1 (AC8): slightly more potent against AC8 than AC1 |
